Data reported in publication PMC7933930, “Development of a small molecule that corrects misfolding and increases secretion of Z α1‐antitrypsin” (EMBO Molecular Medicine, 2021).
Like-named read-outs stand apart in the source and are kept apart here.

Experiments:
[1] = Total and unbound drug concentrations in blood and liver of Z α1‐antitrypsin transgenic mice; assay type: in vivo; settings: for concentration at 123 h / concentration at 128 h / concentration at 339 h / concentration at 483 h: female, mouse, oral
Protocol: GSK716 was evaluated in a transgenic mouse model with an engineered random insertion of the human Z α1‐antitrypsin gene (Teckman et al, 2004). […] Further, older mice have larger α1‐antitrypsin inclusions that may be more difficult to reverse and any changes would be more difficult to detect than in younger animals. The PK‐PD relationship of GSK716 was explored by dosing Z α1‐antitrypsin transgenic animals with 10, 30 or 100 mg/kg GSK716 three times a day. […] Blood was also harvested for the measurement of monomeric Z α1‐antitrypsin in plasma. Total concentrations of GSK716 were determined by LC‐MS/MS, and the free drug in both tissues was determined using equilibrium dialysis to determine free fraction in the samples, subsequently used to derive unbound concentrations. […] Both free and total drug concentrations of GSK716 at the targeted site of action in the liver were equivalent to those in blood (Table 2).
Male CD‐1 mice, Han Wistar rats or beagle dogs were administered GSK716 as a suspension in 1% w/v aqueous methylcellulose via oral gavage at doses of 1 mg/kg (dog) or 10, 30 and 100 mg/kg (mouse, rat). Blood samples were taken into EDTA, diluted and mixed with acetonitrile containing internal standard (alprazolam) and centrifuged to precipitate proteins. Aliquots of the resultant supernatant were analysed by LC‐MS/MS, and concentrations of GSK716 in blood were determined. Non‐compartmental pharmacokinetic analysis (NCA) was carried out using Phoenix WinNonLin 6.3 (Certara L.P.). Free drug was measured in Z α1‐antitrypsin transgenic mice by dialysing tissue samples in rapid equilibrium dialysis cassettes.
Hemizygous female Z α1‐antitrypsin transgenic mice were 13–15 weeks of age at start of study. Drugs were administered via oral gavage three times a day at 8‐h intervals at 10 ml/Kg as a suspension in aqueous methylcellulose containing 0.5% w/v Tween 80. In life, blood sampling was performed vial tail nick. Animals were housed in licensed, approved housing in the UK with appropriate enrichment. Animals were randomly assigned to groups using manual methods. Histopathology analysis was performed blind.

[2] = molecular target: Adrenergic β2 (Homo sapiens, UniProt P07550); assay: Off‐target panel: Adrenergic β2; assay type: cell-based; settings: read-out: Mean (PXC50)
Protocol: (§1) GSK716 selectivity and PK properties were profiled in order to investigate the suitability of GSK716 for progression into in vivo studies and the potential for taking it forward as a clinical candidate for testing in humans. Since GSK716 results in loss of inhibitory activity of α1‐antitrypsin, the effect of the compound was assessed on other closely related serpins. […] Furthermore, there were no off‐target effects in a panel of assays considered predictive of known safety liabilities that precluded further development of GSK716 (Table EV1).

[3] = molecular target: OPRK1 (Homo sapiens, UniProt P41145); assay: Off‐target panel: OPRK1; assay type: cell-based
Protocol: as §1

[4] = molecular target: OATP1B1 (Homo sapiens, UniProt Q9Y6L6); assay: Off‐target panel: OATP1B1; assay type: in vitro ADME; settings: Inhibition, read-out: Mean (PXC50)
Protocol: as §1

[5] = molecular target: Vasopressin V1a (Homo sapiens, UniProt P37288); assay: Off‐target panel: Vasopressin V1a; assay type: cell-based; settings: Antagonist, read-out: Mean (PXC50) (converted)
Protocol: as §1

[6] = molecular target: Glucocorticoid Receptor (Homo sapiens, UniProt P04150); assay: Off‐target panel: Glucocorticoid Receptor; assay type: cell-based; settings: Agonist, read-out: Mean (PXC50)
Protocol: as §1

[7] = molecular target: hERG (Homo sapiens, UniProt Q12809); assay: Off‐target panel: hERG (Barracuda); assay type: cell-based; settings: Blocker, read-out: Mean (PXC50) (converted)
Protocol: as §1

[8] = Z α1-antitrypsin transgenic (hemizygous), whole blood, 100 mg/kg, 100 mg/kg three times a day, read-out: TOTAL mean concentration ± SD, Blood
[9] = Z α1-antitrypsin transgenic (hemizygous), whole blood, 100 mg/kg, 100 mg/kg three times a day, read-out: UNBOUND mean concentration ± SD, Blood
[10] = hemizygous Z α1-antitrypsin transgenic, liver, 100 mg/kg three times a day, read-out: TOTAL mean concentration ± SD, Liver

Chain of Adrenergic β2 (P07550 whole entry): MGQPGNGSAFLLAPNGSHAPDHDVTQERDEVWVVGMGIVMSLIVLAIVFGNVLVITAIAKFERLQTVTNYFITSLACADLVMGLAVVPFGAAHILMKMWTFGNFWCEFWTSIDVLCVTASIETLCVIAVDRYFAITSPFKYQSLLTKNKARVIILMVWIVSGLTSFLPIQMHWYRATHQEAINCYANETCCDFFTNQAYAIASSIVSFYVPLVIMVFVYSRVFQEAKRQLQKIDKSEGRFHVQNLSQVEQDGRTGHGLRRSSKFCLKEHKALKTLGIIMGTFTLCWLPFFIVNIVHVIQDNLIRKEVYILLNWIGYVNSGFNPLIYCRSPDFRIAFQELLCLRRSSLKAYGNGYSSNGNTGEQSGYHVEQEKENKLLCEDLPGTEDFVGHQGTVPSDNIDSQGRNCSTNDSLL
Chain of OPRK1 (P41145 whole entry, species assumed): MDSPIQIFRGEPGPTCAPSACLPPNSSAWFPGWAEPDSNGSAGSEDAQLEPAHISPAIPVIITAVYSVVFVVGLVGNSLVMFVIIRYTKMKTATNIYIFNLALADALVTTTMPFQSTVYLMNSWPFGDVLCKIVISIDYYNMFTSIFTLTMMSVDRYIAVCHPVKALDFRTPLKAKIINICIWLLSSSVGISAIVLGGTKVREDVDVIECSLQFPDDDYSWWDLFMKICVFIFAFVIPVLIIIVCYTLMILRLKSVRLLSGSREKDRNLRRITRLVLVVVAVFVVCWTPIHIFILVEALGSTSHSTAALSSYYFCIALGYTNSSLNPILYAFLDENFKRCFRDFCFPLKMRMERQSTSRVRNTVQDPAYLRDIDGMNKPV
Chain of Glucocorticoid Receptor (P04150 whole entry, species assumed): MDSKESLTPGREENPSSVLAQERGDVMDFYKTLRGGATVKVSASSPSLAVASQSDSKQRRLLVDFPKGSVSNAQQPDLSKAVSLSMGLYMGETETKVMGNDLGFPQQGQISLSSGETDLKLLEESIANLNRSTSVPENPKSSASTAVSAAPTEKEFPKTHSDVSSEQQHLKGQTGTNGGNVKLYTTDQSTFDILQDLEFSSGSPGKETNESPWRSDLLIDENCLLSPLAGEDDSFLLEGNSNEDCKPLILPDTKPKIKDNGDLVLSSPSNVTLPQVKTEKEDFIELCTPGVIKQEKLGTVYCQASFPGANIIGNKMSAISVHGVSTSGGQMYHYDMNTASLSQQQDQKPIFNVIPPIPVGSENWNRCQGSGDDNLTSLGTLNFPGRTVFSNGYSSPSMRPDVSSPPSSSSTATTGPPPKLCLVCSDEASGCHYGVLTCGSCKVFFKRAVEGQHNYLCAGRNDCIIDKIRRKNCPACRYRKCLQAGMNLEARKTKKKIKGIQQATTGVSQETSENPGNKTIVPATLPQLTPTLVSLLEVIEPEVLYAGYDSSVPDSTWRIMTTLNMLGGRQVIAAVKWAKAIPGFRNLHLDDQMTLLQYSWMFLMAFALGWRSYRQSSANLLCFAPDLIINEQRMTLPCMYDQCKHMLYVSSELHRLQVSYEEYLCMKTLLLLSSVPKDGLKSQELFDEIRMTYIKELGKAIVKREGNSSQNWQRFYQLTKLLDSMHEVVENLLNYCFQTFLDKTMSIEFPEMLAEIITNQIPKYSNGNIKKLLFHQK
Chain of hERG (Q12809 whole entry): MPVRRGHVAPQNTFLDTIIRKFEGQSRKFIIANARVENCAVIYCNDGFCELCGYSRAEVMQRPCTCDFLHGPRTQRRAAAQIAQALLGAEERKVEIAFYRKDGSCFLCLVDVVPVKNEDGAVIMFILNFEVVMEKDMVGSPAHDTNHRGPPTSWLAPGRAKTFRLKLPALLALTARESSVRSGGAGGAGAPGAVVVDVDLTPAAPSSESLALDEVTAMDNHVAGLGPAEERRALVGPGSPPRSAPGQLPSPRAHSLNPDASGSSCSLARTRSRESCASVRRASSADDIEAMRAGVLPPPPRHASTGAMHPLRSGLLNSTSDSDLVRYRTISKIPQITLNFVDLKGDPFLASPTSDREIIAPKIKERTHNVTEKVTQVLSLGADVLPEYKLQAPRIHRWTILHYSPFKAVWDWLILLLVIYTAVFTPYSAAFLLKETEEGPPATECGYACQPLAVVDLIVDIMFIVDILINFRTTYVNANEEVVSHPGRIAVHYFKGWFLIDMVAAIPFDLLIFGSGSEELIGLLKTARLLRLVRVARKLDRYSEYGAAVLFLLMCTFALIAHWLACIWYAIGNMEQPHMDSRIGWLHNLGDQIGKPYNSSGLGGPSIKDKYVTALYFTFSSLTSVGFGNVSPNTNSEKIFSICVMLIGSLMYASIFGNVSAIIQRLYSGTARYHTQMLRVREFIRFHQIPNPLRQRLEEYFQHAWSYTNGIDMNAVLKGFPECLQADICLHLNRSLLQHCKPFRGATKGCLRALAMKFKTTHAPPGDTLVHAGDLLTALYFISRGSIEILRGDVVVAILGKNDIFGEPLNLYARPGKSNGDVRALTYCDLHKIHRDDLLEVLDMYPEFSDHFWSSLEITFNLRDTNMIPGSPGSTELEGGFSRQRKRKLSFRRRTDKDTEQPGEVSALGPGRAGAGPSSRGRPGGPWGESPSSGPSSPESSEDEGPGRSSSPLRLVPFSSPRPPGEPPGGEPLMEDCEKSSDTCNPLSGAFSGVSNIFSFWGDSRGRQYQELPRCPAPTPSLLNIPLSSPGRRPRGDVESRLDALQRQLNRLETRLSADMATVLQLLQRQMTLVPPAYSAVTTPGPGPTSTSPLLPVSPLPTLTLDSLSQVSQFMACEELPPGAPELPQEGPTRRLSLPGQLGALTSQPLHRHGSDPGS
Chain of OATP1B1 (Q9Y6L6 whole entry, species assumed): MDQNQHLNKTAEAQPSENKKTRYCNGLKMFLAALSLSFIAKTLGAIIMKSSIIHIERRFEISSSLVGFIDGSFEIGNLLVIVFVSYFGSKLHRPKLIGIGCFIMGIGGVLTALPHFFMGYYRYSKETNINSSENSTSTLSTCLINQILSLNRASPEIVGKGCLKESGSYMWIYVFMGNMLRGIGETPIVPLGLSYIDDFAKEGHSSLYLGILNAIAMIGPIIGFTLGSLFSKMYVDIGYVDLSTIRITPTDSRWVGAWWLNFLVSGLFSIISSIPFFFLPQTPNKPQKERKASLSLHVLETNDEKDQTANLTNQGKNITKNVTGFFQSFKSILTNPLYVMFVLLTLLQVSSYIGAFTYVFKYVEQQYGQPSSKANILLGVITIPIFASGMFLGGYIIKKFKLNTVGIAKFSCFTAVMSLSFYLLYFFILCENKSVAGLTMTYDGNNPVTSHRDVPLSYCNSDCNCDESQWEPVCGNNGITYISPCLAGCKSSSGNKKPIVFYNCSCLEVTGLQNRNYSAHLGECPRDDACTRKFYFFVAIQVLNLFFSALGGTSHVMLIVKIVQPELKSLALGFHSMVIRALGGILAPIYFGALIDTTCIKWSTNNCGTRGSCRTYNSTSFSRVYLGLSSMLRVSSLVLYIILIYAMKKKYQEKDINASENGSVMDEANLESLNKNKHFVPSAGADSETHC
Chain of Vasopressin V1a (P37288 whole entry): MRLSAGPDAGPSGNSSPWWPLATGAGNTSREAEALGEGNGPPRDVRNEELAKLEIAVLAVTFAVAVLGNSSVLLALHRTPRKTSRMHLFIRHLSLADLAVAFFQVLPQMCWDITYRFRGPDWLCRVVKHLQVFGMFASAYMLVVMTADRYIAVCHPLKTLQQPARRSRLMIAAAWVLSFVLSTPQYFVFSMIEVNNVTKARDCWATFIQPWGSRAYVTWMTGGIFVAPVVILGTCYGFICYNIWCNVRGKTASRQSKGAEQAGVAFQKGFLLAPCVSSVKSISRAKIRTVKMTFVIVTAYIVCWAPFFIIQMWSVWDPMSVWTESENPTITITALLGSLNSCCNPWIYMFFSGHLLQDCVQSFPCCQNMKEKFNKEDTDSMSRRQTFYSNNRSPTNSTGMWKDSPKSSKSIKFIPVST

CCC[C@@H](NC(=O)c1cccc2c1CC(=O)N2)[C@@H](O)c1cccc(F)c1C [GSK716]
UNBOUND mean concentration ± SD, Liver ([1]; 30 mg/kg three times a day, time 128 h): 0.075 (± 0.04 µM
concentration at 123 h ([1]; Z α1-antitrypsin transgenic (hemizygous), liver, 10 mg/kg, 10 mg/kg three times a day, read-out: TOTAL mean concentration ± SD, Liver): 3.5 µM
concentration at 123 h ([1]; Z α1-antitrypsin transgenic (hemizygous), liver, 10 mg/kg, 10 mg/kg three times a day, read-out: UNBOUND mean concentration ± SD, Liver): 0.035 µM
concentration at 128 h ([1]; Z α1-antitrypsin transgenic (hemizygous), liver, 10 mg/kg, 10 mg/kg three times a day, time 128 h, read-out: TOTAL mean concentration ± SD, Liver): 2.1 µM
concentration at 128 h ([1]; Z α1-antitrypsin transgenic (hemizygous), liver, 10 mg/kg, 10 mg/kg three times a day, time 128 h, read-out: UNBOUND mean concentration ± SD, Liver): 0.028 µM
concentration at 123 h ([1]; Z α1-antitrypsin transgenic (hemizygous), liver, 30 mg/kg, 30 mg/kg three times a day, read-out: TOTAL mean concentration ± SD, Liver): 6.7 µM
concentration at 123 h ([1]; Z α1-antitrypsin transgenic (hemizygous), liver, 30 mg/kg, 30 mg/kg three times a day, read-out: UNBOUND mean concentration ± SD, Liver): 0.091 µM
concentration at 128 h ([1]; Z α1-antitrypsin transgenic (hemizygous), liver, 30 mg/kg, 30 mg/kg three times a day, time 128 h, read-out: TOTAL mean concentration ± SD, Liver): 8.3 µM
concentration at 123 h ([1]; Z α1-antitrypsin transgenic (hemizygous), liver, 100 mg/kg, 100 mg/kg three times a day, read-out: TOTAL mean concentration ± SD, Liver): 40.9 µM
concentration at 123 h ([1]; Z α1-antitrypsin transgenic (hemizygous), liver, 100 mg/kg, 100 mg/kg three times a day, read-out: UNBOUND mean concentration ± SD, Liver): 1.05 µM
concentration at 128 h ([1]; Z α1-antitrypsin transgenic (hemizygous), liver, 100 mg/kg, 100 mg/kg three times a day, time 128 h, read-out: TOTAL mean concentration ± SD, Liver): 28.4 µM
concentration at 128 h ([1]; Z α1-antitrypsin transgenic (hemizygous), liver, 100 mg/kg, 100 mg/kg three times a day, time 128 h, read-out: UNBOUND mean concentration ± SD, Liver): 0.679 µM
concentration at 123 h ([1]; Z α1-antitrypsin transgenic (hemizygous), whole blood, 10 mg/kg, 10 mg/kg three times a day, read-out: TOTAL mean concentration ± SD, Blood): 8.7 µM
concentration at 123 h ([1]; Z α1-antitrypsin transgenic (hemizygous), whole blood, 10 mg/kg, 10 mg/kg three times a day, read-out: UNBOUND mean concentration ± SD, Blood): 0.018 µM
concentration at 128 h ([1]; Z α1-antitrypsin transgenic (hemizygous), whole blood, 10 mg/kg, 10 mg/kg three times a day, time 128 h, read-out: TOTAL mean concentration ± SD, Blood): 7.7 µM
concentration at 128 h ([1]; Z α1-antitrypsin transgenic (hemizygous), whole blood, 10 mg/kg, 10 mg/kg three times a day, time 128 h, read-out: UNBOUND mean concentration ± SD, Blood): 0.009 µM
concentration at 123 h ([1]; Z α1-antitrypsin transgenic (hemizygous), whole blood, 30 mg/kg, 30 mg/kg three times a day, read-out: TOTAL mean concentration ± SD, Blood): 14 µM
concentration at 123 h ([1]; Z α1-antitrypsin transgenic (hemizygous), whole blood, 30 mg/kg, 30 mg/kg three times a day, read-out: UNBOUND mean concentration ± SD, Blood): 0.061 µM
concentration at 128 h ([1]; Z α1-antitrypsin transgenic (hemizygous), whole blood, 30 mg/kg, 30 mg/kg three times a day, time 128 h, read-out: TOTAL mean concentration ± SD, Blood): 13 µM
concentration at 128 h ([1]; Z α1-antitrypsin transgenic (hemizygous), whole blood, 30 mg/kg, 30 mg/kg three times a day, time 128 h, read-out: UNBOUND mean concentration ± SD, Blood): 0.051 µM
concentration at 123 h [1, 8]: 33 µM
concentration at 123 h [1, 9]: 0.49 µM
concentration at 128 h ([1]; Z α1-antitrypsin transgenic (hemizygous), whole blood, 100 mg/kg, 100 mg/kg three times a day, time 128 h, read-out: TOTAL mean concentration ± SD, Blood): 20 µM
concentration at 128 h ([1]; Z α1-antitrypsin transgenic (hemizygous), whole blood, 100 mg/kg, 100 mg/kg three times a day, time 128 h, read-out: UNBOUND mean concentration ± SD, Blood): 0.18 µM
concentration at 339 h [1, 8]: 30 µM
concentration at 339 h [1, 9]: 0.529 µM
concentration at 483 h ([1]; hemizygous Z α1-antitrypsin transgenic, blood, 100 mg/kg three times a day, read-out: TOTAL mean concentration ± SD, Blood): 22 µM
concentration at 483 h ([1]; hemizygous Z α1-antitrypsin transgenic, blood, 100 mg/kg three times a day, read-out: UNBOUND mean concentration ± SD, Blood): 0.561 µM
concentration at 339 h [1, 10]: 84.6 µM
concentration at 483 h [1, 10]: 42.4 µM
EC50 ([2]; Agonist): > 100 µM
IC50 ([2]; Antagonist): > 100 µM
EC50 [3]: > 100 µM
IC50 [4]: > 50.1 µM
IC50 [5]: 39.8 µM
EC50 [6]: > 100 µM
IC50 [7]: 15.8 µM
